The record followed here is ChEMBL document CHEMBL1154617, “Synthesis and biological evaluation of 17beta-hydroxysteroid dehydrogenase type 1 (17beta-HSD1) inhibitors based on a thieno[2,3-d]pyrimidin-4(3H)-one core” (J Med Chem, 2009).

The target in assay [1] is T1, 17-beta-hydroxysteroid dehydrogenase type 1 (Homo sapiens) (UniProt P14061).
T1 sequence (whole entry): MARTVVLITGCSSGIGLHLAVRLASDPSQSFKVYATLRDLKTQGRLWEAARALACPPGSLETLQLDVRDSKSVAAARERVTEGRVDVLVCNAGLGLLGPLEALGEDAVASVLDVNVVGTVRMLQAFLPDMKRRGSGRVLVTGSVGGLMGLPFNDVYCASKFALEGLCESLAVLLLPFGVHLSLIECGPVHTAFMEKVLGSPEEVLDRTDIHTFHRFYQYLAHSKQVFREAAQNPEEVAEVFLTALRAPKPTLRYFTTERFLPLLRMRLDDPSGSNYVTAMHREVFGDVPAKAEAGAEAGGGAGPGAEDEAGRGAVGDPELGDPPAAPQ
As to the kind of experiment: Inhibition of human recombinant 17beta-HSD1 at 0.1 uM by cell-free assay. It is filed as single protein.

Assay [2] concerns the target T2, 17-beta-hydroxysteroid dehydrogenase type 2 (Homo sapiens) (UniProt P37059).
T2 sequence (whole entry): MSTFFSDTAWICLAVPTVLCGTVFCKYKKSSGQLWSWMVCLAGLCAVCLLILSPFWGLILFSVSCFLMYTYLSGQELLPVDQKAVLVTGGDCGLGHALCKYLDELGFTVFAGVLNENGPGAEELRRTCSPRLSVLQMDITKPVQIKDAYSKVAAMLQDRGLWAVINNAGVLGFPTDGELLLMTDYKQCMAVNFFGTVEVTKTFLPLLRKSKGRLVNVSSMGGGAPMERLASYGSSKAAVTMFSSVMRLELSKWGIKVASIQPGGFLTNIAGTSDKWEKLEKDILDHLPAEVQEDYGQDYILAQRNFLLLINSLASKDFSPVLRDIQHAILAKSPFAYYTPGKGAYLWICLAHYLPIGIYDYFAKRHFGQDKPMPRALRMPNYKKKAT
Briefly: Inhibition of human recombinant 17beta-HSD2 at 0.1 uM by cell-free assay.

For assay [3], the target named is T1, 17-beta-hydroxysteroid dehydrogenase type 1 (Homo sapiens). As to the kind of experiment: Inhibition of human recombinant 17beta-HSD1 expressed in human MCF7 cells at 1 uM by cell-based assay.
The target is the same in assay [4]. Briefly: Inhibition of human recombinant 17beta-HSD1 expressed in human MCF7 cells at 0.1 uM by cell-based assay.
The target in assay [5] is T2, 17-beta-hydroxysteroid dehydrogenase type 2 (Homo sapiens). As to the kind of experiment: Inhibition of human recombinant 17beta-HSD2 at 1 uM by cell-free assay.
The target of assay [6] is T1, 17-beta-hydroxysteroid dehydrogenase type 1 (Homo sapiens). Briefly: Inhibition of human recombinant 17beta-HSD1 at 1 uM by cell-free assay. It counts as single protein.
A further assay deals with Estrogen receptor beta (Homo sapiens, UniProt Q92731). As to the kind of experiment: Activity at human recombinant ERbeta by fluorescence polarization assay.
Sequence of Estrogen receptor beta (Q92731 whole entry): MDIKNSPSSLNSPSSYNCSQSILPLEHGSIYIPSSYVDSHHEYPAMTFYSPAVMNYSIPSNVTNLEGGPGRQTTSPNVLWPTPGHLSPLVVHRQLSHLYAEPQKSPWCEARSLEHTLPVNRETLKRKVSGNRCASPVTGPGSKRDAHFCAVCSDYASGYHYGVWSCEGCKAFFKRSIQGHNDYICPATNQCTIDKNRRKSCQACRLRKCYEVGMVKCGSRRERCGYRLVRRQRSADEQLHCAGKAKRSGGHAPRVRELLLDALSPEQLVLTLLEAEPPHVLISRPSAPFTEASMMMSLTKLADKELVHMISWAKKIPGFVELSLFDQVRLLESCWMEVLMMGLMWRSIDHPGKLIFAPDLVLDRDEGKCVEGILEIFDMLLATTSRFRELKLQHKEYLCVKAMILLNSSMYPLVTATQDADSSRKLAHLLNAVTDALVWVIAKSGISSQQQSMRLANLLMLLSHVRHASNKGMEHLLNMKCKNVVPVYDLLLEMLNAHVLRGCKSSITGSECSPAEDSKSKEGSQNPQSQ
A further assay deals with T3, Estrogen receptor (Homo sapiens, UniProt P03372).
T3 sequence (P03372 whole entry): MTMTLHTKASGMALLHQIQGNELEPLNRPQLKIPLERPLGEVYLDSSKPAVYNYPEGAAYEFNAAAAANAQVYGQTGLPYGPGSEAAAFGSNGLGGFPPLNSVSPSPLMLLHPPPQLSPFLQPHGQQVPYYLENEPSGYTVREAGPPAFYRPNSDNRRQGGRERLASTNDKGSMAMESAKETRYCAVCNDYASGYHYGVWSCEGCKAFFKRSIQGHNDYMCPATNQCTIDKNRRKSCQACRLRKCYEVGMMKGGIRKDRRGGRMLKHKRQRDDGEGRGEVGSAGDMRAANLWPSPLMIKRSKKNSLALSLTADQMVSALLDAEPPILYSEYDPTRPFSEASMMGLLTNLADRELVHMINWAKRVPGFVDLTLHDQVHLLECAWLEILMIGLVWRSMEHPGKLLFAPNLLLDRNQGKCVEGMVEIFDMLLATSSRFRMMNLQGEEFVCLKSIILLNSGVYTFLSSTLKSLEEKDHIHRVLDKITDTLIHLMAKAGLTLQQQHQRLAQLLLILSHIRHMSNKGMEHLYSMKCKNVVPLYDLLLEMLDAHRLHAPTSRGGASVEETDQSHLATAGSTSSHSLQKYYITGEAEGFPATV
Briefly: Activity at human recombinant ERalpha by fluorescence polarization assay.

Structures are written as SMILES. Activity calls are given as the source filed them. The calls are words filed in the database; no cut-off is given here.

For orientation: inhibition means the percentage by which the read-out fell short of the control. Consider `CCSC1=C(C=O)CCc2c1sc1nc3n(c(=O)c21)CCCCC3`, for which the inhibition is 71.3% in assay [1]; 100% in assay [3]; 66.1% in assay [4]; 2% in assay [5]; 94.5% in assay [6]. In assay [2], the inhibition result is “inactive”.

As for `O=CC1=C(Sc2ccccc2O)c2sc3nc4n(c(=O)c3c2CC1)CCCCC4`, the inhibition in assay [1] came out at 85.6%; in assay [2] it was 32.6%; in assay [3] it was 90.1%; in assay [4] it was 18.2%; in assay [5] it was 71.6%; in assay [6], 91.3%.

Turning to `CCCCSC1=C(C=O)CCc2c1sc1nc3n(c(=O)c21)CCCCC3`, the inhibition was 67.6% in assay [1]; 100% in assay [3]; 54.1% in assay [4]; 7.8% in assay [5]; 93.4% in assay [6]. The inhibition entry in assay [2] is “inactive”.

Regarding `CCCSc1c(CO)ccc2c1sc1nc3n(c(=O)c12)CCCCC3`, the inhibition in assay [1] was found to be 69%; in assay [2] it was 13.6%; in assay [3] it was 78.6%; in assay [4] it was 35.6%; in assay [5] it was 20.6%; in assay [6], 85.9%.

As to `CCCSC1=C(C=O)CCc2c1sc1nc3n(c(=O)c21)CCC3`, the results for the inhibition in assay [1] and in assay [6] were 16.7% and 67.2%, respectively.

As for `O=CC1=C(Sc2ccc3ccccc3c2)c2sc3nc4n(c(=O)c3c2CC1)CCCCC4`, the inhibition in assay [1] was 55.2%; in assay [2] it was 19%; in assay [5], 40.1%; in assay [6] it was 64%.

In the case of `O=CC1=C(Sc2ccc(F)cc2)c2sc3nc4n(c(=O)c3c2CC1)CCCCC4`, the inhibition in assay [1] was 87.4%; in assay [2], 17%; in assay [3], 27.4%; in assay [4], 17.3%; in assay [5], 27.4%; in assay [6] it was 91.9%.

Turning to `COc1ccc(SC2=C(C=O)CCc3c2sc2nc4n(c(=O)c32)CCCCC4)cc1`, the inhibition in assay [1] stood at 89%; in assay [2] it was 8.6%; in assay [3], 71.6%; in assay [4], 24.6%; in assay [5], 53%; in assay [6], 89.8%.

In the case of `O=CC1=C(Sc2ccc(C(=O)O)cc2)c2sc3nc4n(c(=O)c3c2CC1)CCCCC4`, the inhibition was determined as 3.8% in assay [1] and 22.1% in assay [6].

For `O=CC1=C(SCCC(=O)O)c2sc3nc4n(c(=O)c3c2CC1)CCCCC4`, the inhibition in assay [1] is 0.3%; in assay [6], 2.8%.

Turning to `CCCSC1=C(C=O)CCc2c1sc1ncn(C)c(=O)c21`, the inhibition in assay [1] came out at 24.3%; in assay [2], 12.9%; in assay [3] it was 48.2%; in assay [4], 19.5%; in assay [5], 17.4%; in assay [6] it was 55.8%.

By EC50 is commonly meant the midpoint of the concentration-response curve. Take `O=CC1=C(Sc2ccccc2)c2sc3nc4n(c(=O)c3c2CC1)CCCCC4`: the inhibition in assay [1] worked out at 63.3%; in assay [6], 85.1%. Besides, the EC50 on Estrogen receptor beta and at Estrogen receptor was over 10 µM each time.

As for `CC(C)SC1=C(C=O)CCc2c1sc1nc3n(c(=O)c21)CCCCC3`, the inhibition was 64.7% in assay [1], 100% in assay [3], 71.9% in assay [4] and 92.9% in assay [6]. In addition, the inhibition entry in assay [2] and in assay [5] was “inactive” in each case.

Take `O=CC1=C(Cl)c2sc3nc4n(c(=O)c3c2CC1)CCC4`: the inhibition is 3.3% in assay [1], 38.6% in assay [3], 19.7% in assay [4] and 26.1% in assay [6].

Take `O=CC1=C(Cl)c2sc3nc4n(c(=O)c3c2CCC1)CCCCC4`: the EC50 at Estrogen receptor was over 10 µM.

Consider `CCCSC1=C(C=O)CCCc2c1sc1nc3n(c(=O)c21)CCCCC3`, for which the inhibition in assay [1] turned out to be 35.2%; in assay [3] it was 100%; in assay [4] it was 43.9%; in assay [6], 87%. Moreover, the inhibition result in assay [2] and in assay [5] was “inactive” each time.

As for `O=c1c2c3c(sc2nc2n1CCCCC2)C(Cl)=C(CO)CC3`, the inhibition amounted to 14.5% in assay [1], 36.2% in assay [3], 25.9% in assay [4] and 39.9% in assay [6].

For `O=CC1=C(SCc2ccccc2)c2sc3nc4n(c(=O)c3c2CC1)CCCCC4`, the inhibition in assay [1] came out at 7.2%; in assay [2], 25.8%; in assay [5] it was 62.2%; in assay [6] it was 30.7%.

Consider `O=CC1=C(SCC(=O)N2CCOCC2)c2sc3nc4n(c(=O)c3c2CC1)CCCCC4`, for which the inhibition in assay [1] was 4%; in assay [2], 3.9%; in assay [3], 39.4%; in assay [4], 3.9%; in assay [5] it was 3.1%; in assay [6], 7.8%.

In the case of `CCCSc1c(C=O)ccc2c1sc1nc3n(c(=O)c12)CCCCC3`, the inhibition in assay [1] came out at 83%; in assay [2], 3.8%; in assay [3], 86.4%; in assay [4], 28.5%; in assay [5], 12.7%; in assay [6], 90.6%.

Take `O=c1c2c(nc3n1CCCCC3)sc1c(Sc3ccccc3)c(CO)ccc12`: the inhibition is 80.5% in assay [1]; 30.8% in assay [2]; 46.9% in assay [3]; 30.5% in assay [4]; 37.3% in assay [5]; 87.5% in assay [6].

As to `O=C1CCCc2c1sc1nc3n(c(=O)c21)CCCC3`, in assay [1], the inhibition entry is “inactive”. Further, the figures for the inhibition in assay [3], in assay [4] and in assay [6] were 35.8%, 6.3% and 3.8%, respectively.

As for `CCCSC1=C(/C=N/O)CCc2c1sc1nc3n(c(=O)c21)CCCCC3`, the inhibition amounted to 0.1% in assay [1], 19.7% in assay [2], 41.1% in assay [5] and 2.9% in assay [6].

On to `O=CC1=C(Sc2ccncc2)c2sc3nc4n(c(=O)c3c2CC1)CCCCC4`, for which the inhibition came to 79.2% in assay [1], 10.5% in assay [2], 13.7% in assay [5] and 87.2% in assay [6].

Turning to `O=CC1=C(Sc2ccc(O)cc2)c2sc3nc4n(c(=O)c3c2CC1)CCCCC4`, the inhibition in assay [1] amounted to 58.5%; in assay [2], 21.7%; in assay [3] it was 76.8%; in assay [4], 36.5%; in assay [5] it was 22.6%; in assay [6], 1.8%.

On to `CCCSC1=C(/C=C/C(C)=O)CCc2c1sc1nc3n(c(=O)c21)CCCCC3`, for which the inhibition in assay [1] is 1.1%; in assay [3], 8.9%; in assay [4], 8.4%; in assay [6], 13.9%.

Take `O=c1c2c3c(sc2nc2n1CCCCC2)CCCC3`: the inhibition is 8% in assay [1], 45.9% in assay [3], 10% in assay [4] and 23.2% in assay [6].

For the compound `O=c1c2c3c(sc2nc2n1CCCCC2)C(Cl)=C(/C=N/O)CC3`, the inhibition in assay [1] was found to be 4.1%; in assay [3], 15.1%; in assay [4], 14%; in assay [6], 17.9%.

As for `Cc1ccc(SC2=C(C=O)CCc3c2sc2nc4n(c(=O)c32)CCCCC4)cc1`, the inhibition was 47% in assay [1]; 8.2% in assay [2]; 69.4% in assay [3]; 18.9% in assay [4]; 32.1% in assay [5]; 80.6% in assay [6].
